The source made the active and inactive calls. No rule for the calls is given here.
Test system: rodent carcinogenicity bioassays, tumor incidence
Experiment: CCRIS carcinogenicity studies
Summary of the method: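 Archive of carcinogenicity, mutagenicity, tumor promotion and tumor inhibition results drawn from journals, NCI reports and other sources, expert-reviewed; covers 1985-2011 and is no longer updated.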

For COc1cc2c(c3oc(=O)c4c(c13)CCC4=O)[C@@H]1C=CO[C@@H]1O2, the carcinogen call (Species: FISH, Strain/Sex: COHO SALMON, Route: DIET, Dose: 0, 40 PPB IN DIET FOR 4 WK (STUDY DURATION: 12 MO)) was “inactive; negative”, the carcinogen call (Species: FISH, Strain/Sex: COHO SALMON, Route: DIET, Dose: 0, 5000 PPB FOR 3 WK (STUDY DURATION: 12 MO)) was “inactive; negative” and the carcinogen call (Species: FISH, Strain/Sex: COHO SALMON, Route: IMMERSION, Dose: 0, 0.5 PPM AQUEOUS SOLUTION FOR 30 MIN EXPOSURE OF EMBRYOS 4-5 D BEFORE HATCHING (STUDY DURATION: 12 MO)) was “inactive; negative”. For the same molecule, the carcinogen call (Species: FISH, Strain/Sex: MT. SHASTA RAINBOW TROUT, Route: IMMERSION, Dose: 0, 0.5 PPM AQUEOUS SOLUTION FOR 15 MIN EXPOSURE OF EMBRYOS 4-5 D BEFORE HATCHING (STUDY DURATION: 12 MO), Tumor Site: Type of Lesion: LIVER: HEPATOCELLULAR CARCINOMA) was “active; positive”, the carcinogen call (Species: FISH, Strain/Sex: MT. SHASTA RAINBOW TROUT, Route: ORAL, Dose: 0, 20 PPB IN DIET FOR 4 WK (STUDY DURATION: 12 MO), Tumor Site: Type of Lesion: LIVER: HEPATOCELLULAR CARCINOMA) was “active; positive” and the carcinogen call (Species: FISH, Strain/Sex: RAINBOW TROUT, Route: ORAL, Dose: 0, 1.5, 7.5 UG/DIET FOR 5.5 MO (STUDY DURATION: 5.5 MO), Dose: 0, 1.5, 7.5 UG/DIET FOR 5.5 MO (STUDY DURATION: 5.5 MO), Tumor Site: Type of Lesion: LIVER: HEPATOMA) was “active; positive”. The carcinogen call (Species: FISH, Strain/Sex: RAINBOW, Route: DIET, Dose: 0, 6 PPB FOR UP TO 1 YR, Tumor Site: Type of Lesion: LIVER: HEPATOCELLULAR CARCINOMA) was “active; positive”, the carcinogen call (Species: FISH, Strain/Sex: SHASTA RAINBOW TROUT/MALE, FEMALE, Route: IMMERSION, Dose: 0, 0.01, 0.025, 0.05, 0.1, 0.25, 0.5 PPM SOLUTION IN WATER FOR 1 HR EXPOSURE OF EMBRYOS (STUDY DURATION: 13 MO), Dose: 0, 0.01, 0.025, 0.05, 0.1, 0.25, 0.5 PPM SOLUTION IN WATER FOR 1 HR EXPOSURE OF EMBRYOS (STUDY DURATION: 13 MO), Tumor Site: Type of Lesion: LIVER: TUMOR) was “active; positive” and the carcinogen call (Species: FISH, Strain/Sex: SHASTA RAINBOW TROUT/MALE, FEMALE, Route: ORAL, Dose: 0, 4, 8, 16, 32, 64 PPB IN DIET FOR 2 WK FOLLOWED BY CONTROL DIET FOR THE DURATION OF STUDY (STUDY DURATION: 9 MO), Dose: 0, 4, 8, 16, 32, 64 PPB IN DIET FOR 2 WK FOLLOWED BY CONTROL DIET FOR THE DURATION OF STUDY (STUDY DURATION: 9 MO), Tumor Site: Type of Lesion: LIVER: TUMOR) was “active; positive”. For the same molecule, the carcinogen call (Species: HUMAN, Route: ORAL, Tumor Site: Type of Lesion: LIVER) was “active; positive”, the carcinogen call (Species: MONKEY, Strain/Sex: AFRICAN GREEN/MALE,FEMALE, Route: INTRAPERITONEAL, Dose: 99-134 MG TOTAL DOSE, 1/WK FOR AT LEAST 2 YR, Tumor Site: Type of Lesion: LIVER: CARCINOMA, HEMANGIOENDOTHELIAL SARCOMA, GALL BLADDER (BILE DUCT): ADENOCARCINOMA, PANCREAS: HEMANGIOENDOTHELIAL S, Tumor Site: Type of Lesion: LIVER: CARCINOMA, HEMANGIOENDOTHELIAL SARCOMA, GALL BLADDER (BILE DUCT): ADENOCARCINOMA, PANCREAS: HEMANGIOENDOTHELIAL S) was “active; positive” and the carcinogen call (Species: MONKEY, Strain/Sex: AFRICAN GREEN/MALE,FEMALE, Route: ORAL, Dose: 99-134 MG TOTAL DOSE, 1/WK FOR AT LEAST 2 YR, Tumor Site: Type of Lesion: LIVER: CARCINOMA, HEMANGIOENDOTHELIAL SARCOMA, GALL BLADDER (BILE DUCT): ADENOCARCINOMA, PANCREAS: HEMANGIOENDOTHELIAL S, Tumor Site: Type of Lesion: LIVER: CARCINOMA, HEMANGIOENDOTHELIAL SARCOMA, GALL BLADDER (BILE DUCT): ADENOCARCINOMA, PANCREAS: HEMANGIOENDOTHELIAL S) was “active; positive”. The carcinogen call (Species: MONKEY, Strain/Sex: CYNOMOLGUS/MALE,FEMALE, Route: INTRAPERITONEAL, Dose: 99-134 MG TOTAL DOSE, 1/WK FOR AT LEAST 2 YR, Tumor Site: Type of Lesion: LIVER: CARCINOMA, HEMANGIOENDOTHELIAL SARCOMA, GALL BLADDER (BILE DUCT): ADENOCARCINOMA, PANCREAS: HEMANGIOENDOTHELIAL S, Tumor Site: Type of Lesion: LIVER: CARCINOMA, HEMANGIOENDOTHELIAL SARCOMA, GALL BLADDER (BILE DUCT): ADENOCARCINOMA, PANCREAS: HEMANGIOENDOTHELIAL S) was “active; positive”, the carcinogen call (Species: MONKEY, Strain/Sex: CYNOMOLGUS/MALE,FEMALE, Route: ORAL, Dose: 99-134 MG TOTAL DOSE, 1/WK FOR AT LEAST 2 YR, Tumor Site: Type of Lesion: LIVER: CARCINOMA, HEMANGIOENDOTHELIAL SARCOMA, GALL BLADDER (BILE DUCT): ADENOCARCINOMA, PANCREAS: HEMANGIOENDOTHELIAL S, Tumor Site: Type of Lesion: LIVER: CARCINOMA, HEMANGIOENDOTHELIAL SARCOMA, GALL BLADDER (BILE DUCT): ADENOCARCINOMA, PANCREAS: HEMANGIOENDOTHELIAL S) was “active; positive” and the carcinogen call (Species: MONKEY, Strain/Sex: RHESUS/MALE,FEMALE, Route: INTRAPERITONEAL, Dose: 99-134 MG TOTAL DOSE, 1/WK FOR AT LEAST 2 YR, Tumor Site: Type of Lesion: LIVER: CARCINOMA, HEMANGIOENDOTHELIAL SARCOMA, GALL BLADDER (BILE DUCT): ADENOCARCINOMA, PANCREAS: HEMANGIOENDOTHELIAL S, Tumor Site: Type of Lesion: LIVER: CARCINOMA, HEMANGIOENDOTHELIAL SARCOMA, GALL BLADDER (BILE DUCT): ADENOCARCINOMA, PANCREAS: HEMANGIOENDOTHELIAL S) was “active; positive”. For the same molecule, the carcinogen call (Species: MONKEY, Strain/Sex: RHESUS/MALE,FEMALE, Route: ORAL, Dose: 99-134 MG TOTAL DOSE, 1/WK FOR AT LEAST 2 YR, Tumor Site: Type of Lesion: LIVER: CARCINOMA, HEMANGIOENDOTHELIAL SARCOMA, GALL BLADDER (BILE DUCT): ADENOCARCINOMA, PANCREAS: HEMANGIOENDOTHELIAL S, Tumor Site: Type of Lesion: LIVER: CARCINOMA, HEMANGIOENDOTHELIAL SARCOMA, GALL BLADDER (BILE DUCT): ADENOCARCINOMA, PANCREAS: HEMANGIOENDOTHELIAL S) was “active; positive”, the carcinogen call (Species: MOUSE, Route: INTRAPERITONEAL, Tumor Site: Type of Lesion: LIVER) was “active; positive” and the carcinogen call (Species: MOUSE, Route: INTRAPERITONEAL, Tumor Site: Type of Lesion: LUNG) was “active; positive”. For the same molecule, the carcinogen call (Species: MOUSE, Strain/Sex: DDK/FEMALE, Route: TRANSPLACENTAL, Dose: 0, 20, 40, 80, 120 MG/KG ADMINISTERED INTRAPERITONEALLY TO MOTHERS ON DAY 14 OF GESTATION AND OFFSPRING OBSERVED FOR 12, Dose: 0, 20, 40, 80, 120 MG/KG ADMINISTERED INTRAPERITONEALLY TO MOTHERS ON DAY 14 OF GESTATION AND OFFSPRING OBSERVED FOR 12) was “inactive; negative”, the carcinogen call (Species: MOUSE, Strain/Sex: DDK/FEMALE, Route: TRANSPLACENTAL, Dose: 0, 40 MG/KG ADMINISTERED INTRAPERITONEALLY TO MOTHERS ON DAY 14 OF GESTATION AND OFFSPRING OBSERVED FOR 6 MO AFTER BIRTH) was “inactive; negative” and the carcinogen call (Species: MOUSE, Strain/Sex: DDK/MALE, Route: TRANSPLACENTAL, Dose: 0, 20, 40, 80, 120 MG/KG ADMINISTERED INTRAPERITONEALLY TO MOTHERS ON DAY 14 OF GESTATION AND OFFSPRING OBSERVED FOR 12, Dose: 0, 20, 40, 80, 120 MG/KG ADMINISTERED INTRAPERITONEALLY TO MOTHERS ON DAY 14 OF GESTATION AND OFFSPRING OBSERVED FOR 12, Tumor Site: Type of Lesion: LIVER: TUMOR) was “active; positive”. For the same molecule, the carcinogen call (Species: MOUSE, Strain/Sex: DDK/MALE, Route: TRANSPLACENTAL, Dose: 0, 40 MG/KG ADMINISTERED INTRAPERITONEALLY TO MOTHERS ON DAY 14 OF GESTATION AND OFFSPRING OBSERVED FOR 6 MO AFTER BIRTH, Tumor Site: Type of Lesion: LIVER: TUMOR) was “active; positive”, the carcinogen call (Species: RAT, Route: INTRAPERITONEAL, ORAL, Tumor Site: Type of Lesion: LIVER) was “active; positive” and the carcinogen call (Species: RAT, Strain/Sex: F344/MALE, Route: ORAL, Dose: 0, 50 PPB IN AGAR BASED SEMISYNTHETIC DIET FOR STUDY DURATION (STUDY DURATION: 17 MO), Tumor Site: Type of Lesion: LIVER: HEPATOCELLULAR CARCINOMA) was “active; positive”. The carcinogen call (Species: RAT, Strain/Sex: F344/MALE, Route: ORAL, Dose: 50 PPB IN DIET 2/WK FOR 12 MO, Tumor Site: Type of Lesion: LIVER: HEPATOCELLULAR CARCINOMA) was “active; positive”, the carcinogen call (Species: RAT, Strain/Sex: SPRAGUE-DAWLEY, Route: DIET, Dose: 0, 25 UG/D FOR 15 DOSES, Tumor Site: Type of Lesion: LIVER: HEPATOCELLULAR CARCINOMA) was “active; positive” and the carcinogen call (Species: TROUT, Strain/Sex: MT. SHASTA RAINBOW, Route: ORAL, Dose: 4 PPB IN DIET FOR 12 MO, Tumor Site: Type of Lesion: LIVER: HEPATOMA) was “active; positive”. The carcinogen call (Species: TROUT, Strain/Sex: MT. SHASTA RAINBOW, Route: ORAL, Dose: 20 PPB IN DIET FOR 12 MO, Tumor Site: Type of Lesion: LIVER: HEPATOCELLULAR CARCINOMA) was “active; positive”.

Source: PubChem BioAssay AID1259411 (Chemical Carcinogenesis Research Information System (CCRIS), 2018)
